{"source": "paper PMC10354055", "about": "“An optimized Nurr1 agonist provides disease-modifying effects in Parkinson’s disease models” (Nature Communications, 2023)", "key": {"[1]": {"tested_on": "HeLa cells", "experiment": "Autophagic flux, Western blot LC3B and p62, HeLa cells", "format": "cell-based", "conditions": "for Relative LC3B-II experession (normalized to β-actin): Supplementary Figure S7f; for Relative p62 experession (normalized to β-actin): Supplementary Figure S7g", "method": "(§1) Experiments were confirmed by duplicate measurements of the same sample. Quantification of immunoreactive bands was performed using ImageJ software (NIH, Bethesda, MD, USA) and expressed as a relative ratio against β-actin.\n(§2) The band intensities were quantified using ImageJ and normalized against β-actin."}, "[2]": {"tested_on": "N27-A cells", "experiment": "Autophagic flux, Western blot LC3B and p62, N27-A cells", "format": "cell-based, rat", "conditions": "individual replicates", "method": "as §1, §2"}, "[3]": {"tested_on": "HeLa cells", "experiment": "Autophagolysosome (APL) formation assay, mRFP-GFP-LC3, HeLa cells", "format": "cell-based", "conditions": "EBSS, BafA1 10 nM, CQ 20 µM, 4A7C-301 1 µM", "method": "Nurr1 transactivity was normalized to β-galactosidase activity.\n(§3) HeLa and N27-A cells were transfected with tandem mRFP-GFP-LC3 (Addgene) plasmid using Lipofectamine 2000 (Invitrogen) in 24-well plates. After 24 h, cells were incubated in starvation medium (Earle’s Balanced Salt Solution, EBSS; Lonza) containing bafilomycin A1 (BafA1, 10 nM), CQ (20 µM), or 4A7C-301 (1 µM) for 6 h and then fixed with 4% formaldehyde for fluorescence detection. Images were taken using a KEYENCE microscope and red (mRFP) LC3 dots and yellow (mRFP+GFP) LC3 dots were counted from three independent wells for each treatment group. 10 cells were randomly selected and counted from each well and a total of 30 cells were analyzed for each treatment group in both HeLa and N27-A cells."}, "[4]": {"tested_on": "HeLa cells", "experiment": "Lysosomal pH detection, LysoSensor, HeLa cells", "format": "cell-based", "method": "(§4) Lysosomal pH was detected as previously described. Briefly, after incubation in EBSS containing BafA1 (10 nM), CQ (20 µM), or 4A7C-301 (1 µM) for 6 h, HeLa and N27-A cells were treated with LysoSensor™ Yellow/Blue DND-160 (5 µM; Life Technology) for 45 min, followed by 2 washes in HEPES buffer (Gibco). Fluorescence images at excitation/emission wavelengths of 360/460 nm and 470/525 nm were taken immediately using a 400 nm dichroic mirror (KEYENCE). The ratio of fluorescence intensities (F360/470) were measured and calculated manually using ImageJ for each cell. The average pH from measuring 5 cells from each of three wells for each treatment group in both HeLa and N27-A cells was calculated by fitting the F360/470 values to a plotted pH calibration curve with KCl/NaCl buffered from pH 3.5 to 7.0 using GraphPad Prism (Version 8.0.2)."}, "[5]": {"tested_on": "N27-A cells", "experiment": "Lysosomal pH detection, LysoSensor, N27-A cells", "format": "cell-based, rat", "method": "as §4"}, "[6]": {"tested_on": "N27-A cells", "experiment": "Autophagolysosome (APL) formation assay, mRFP-GFP-LC3, N27-A cells", "format": "cell-based, rat", "conditions": "Figure 3b; mRFP-GFP-LC3; individual cells (30 per treatment)", "method": "as §3"}}, "note": "Values joined by “and” are separate entries in the source; they are usually repeats but may differ in a detail not shown here. Equal entries are not always repeated."}
{"smiles": "CO/C1=C\\C(C)=C\\[C@@H](C)[C@@H](O)[C@@H](C)C/C(C)=C/C=C/[C@H](OC)[C@@H]([C@@H](C)[C@@H](O)[C@H](C)[C@@]2(O)C[C@@H](O)[C@H](C)[C@@H](C(C)C)O2)OC1=O", "note": "[BafA1, bafilomycin A1]", "values": [{"measurement": "autophagic flux (in words)", "setting": "[1]; HeLa, LC3B-II and p62", "value": "failed to terminate"}, {"measurement": "Relative LC3B-II experession (normalized to β-actin)", "setting": "[1]; time 0h", "value": "0.339 and 0.384 and 0.423"}, {"measurement": "Relative LC3B-II experession (normalized to β-actin)", "setting": "[1]; time 0.5h", "value": "0.689 and 0.867 and 0.926"}, {"measurement": "Relative LC3B-II experession (normalized to β-actin)", "setting": "[1]; time 1h", "value": "0.885 and 1.051 and 1.126"}, {"measurement": "Relative LC3B-II experession (normalized to β-actin)", "setting": "[1]; time 2h", "value": "0.981 and 1.172 and 1.156"}, {"measurement": "Relative LC3B-II experession (normalized to β-actin)", "setting": "[1]; time 4h", "value": "1.098 and 1.172 and 1.288"}, {"measurement": "Relative p62 experession (normalized to β-actin)", "setting": "[1]; time 0h", "value": "0.909 and 0.809 and 0.904"}, {"measurement": "Relative p62 experession (normalized to β-actin)", "setting": "[1]; time 0.5h", "value": "0.781 and 0.847 and 0.974"}, {"measurement": "Relative p62 experession (normalized to β-actin)", "setting": "[1]; time 1h", "value": "0.754 and 0.822 and 0.940"}, {"measurement": "Relative p62 experession (normalized to β-actin)", "setting": "[1]; time 2h", "value": "0.804 and 0.850 and 0.987"}, {"measurement": "Relative p62 experession (normalized to β-actin)", "setting": "[1]; time 4h", "value": "0.978 and 0.992 and 1.169"}, {"measurement": "Relative LC3B-II experession (normalized to β-actin)", "setting": "[2]; Figure 3f, w/ MPP+, 0h", "value": "0.733 and 0.699 and 0.753"}, {"measurement": "Relative LC3B-II experession (normalized to β-actin)", "setting": "[2]; Figure 3f, w/ MPP+, 4h", "value": "1.710 and 1.577 and 1.762"}, {"measurement": "Relative LC3B-II experession (normalized to β-actin)", "setting": "[2]; Figure 3f, w/o MPP+, 0h", "value": "0.546 and 0.525 and 0.431"}, {"measurement": "Relative LC3B-II experession (normalized to β-actin)", "setting": "[2]; Figure 3f, w/o MPP+, 4h", "value": "1.603 and 1.576 and 1.411"}, {"measurement": "Relative LC3B-II experession (normalized to β-actin)", "setting": "[2]; Figure 3g, w/ MPP+, 0h", "value": "1.449 and 1.354 and 1.694"}, {"measurement": "Relative LC3B-II experession (normalized to β-actin)", "setting": "[2]; Figure 3g, w/ MPP+, 4h", "value": "1.439 and 1.341 and 1.659"}, {"measurement": "Relative LC3B-II experession (normalized to β-actin)", "setting": "[2]; Figure 3g, w/o MPP+, 0h", "value": "1.447 and 1.262 and 1.249"}, {"measurement": "Relative LC3B-II experession (normalized to β-actin)", "setting": "[2]; Figure 3g, w/o MPP+, 4h", "value": "1.807 and 1.586 and 1.554"}, {"measurement": "APL formation / autophagy (in words)", "setting": "[3]", "value": "completely inhibited"}, {"measurement": "lysosomal pH (in words)", "setting": "[4]; HeLa, BafA1 10 nM, CQ 20 µM, 4A7C-301 1 µM", "value": "significantly increased"}, {"measurement": "Lysosomal pH", "setting": "[4]; Supplementary Figure S7d, individual replicates", "value": "6.632 and 6.371 and 6.762 and 6.208 and 6.436 and 6.697 and 6.241 and 7.055 and 6.469 and 6.827 and 6.045"}, {"measurement": "Lysosomal pH", "setting": "[5]; Figure 3d, individual replicates", "value": "6.143 and 6.404 and 6.371 and 6.241 and 6.729 and 6.827 and 6.567 and 6.11 and 6.469 and 6.925 and 6.664 and 6.078 and 6.045"}, {"measurement": "lysosomal pH (in words)", "setting": "[5]; N27-A, BafA1 10 nM, CQ 20 µM, 4A7C-301 1 µM", "value": "significantly increased"}, {"measurement": "LC3 dots/cell, Red LC3 dots", "setting": "[6]", "value": "1 dots/cell (14×) and 2 dots/cell (6×) and 0 dots/cell (8×) and 5 dots/cell and 3 dots/cell"}, {"measurement": "LC3 dots/cell, Yellow LC3 dots", "setting": "[6]", "value": "28 dots/cell (2×) and 29 dots/cell (3×) and 21 dots/cell and 37 dots/cell (2×) and 20 dots/cell and 41 dots/cell (2×) and 27 dots/cell (2×) and 31 dots/cell (6×) and 18 dots/cell and 32 dots/cell and 40 dots/cell (2×) and 38 dots/cell and 33 dots/cell and 36 dots/cell and 24 dots/cell and 22 dots/cell and 30 dots/cell and 23 dots/cell"}]}
